Here are results for eight molecules from ChEMBL document CHEMBL1275296, “Synthesis and antimicrobial studies of thiazolotriazinones” (2010).

In brackets after ≈: the same amount, converted by molar mass. Activity calls are given as the source filed them. The rule behind the calls is not given here.

Assay [1] relates to Aspergillus flavus. Briefly: Antifungal activity against Aspergillus flavus by measuring inhibition zone after 48 hrs. It counts as functional.
Assay [2] concerns Staphylococcus aureus. The experiment in a line: Antibacterial activity against Staphylococcus aureus after 24 hrs by broth dilution method. The class given is functional.
Assay [3] deals with Escherichia coli. Briefly: Antibacterial activity against Escherichia coli after 24 hrs by broth dilution method. It counts as functional. Background: In broth dilution the organism is exposed to a series of concentrations in liquid medium.
Assay [4] concerns Aspergillus flavus. The experiment in a line: Antifungal activity against Aspergillus flavus after 48 hrs. The class given is functional.
Assay [5] deals with Trichophyton mentagrophytes. The experiment in a line: Antifungal activity against Trichophyton mentagrophytes by measuring inhibition zone after 48 hrs. It counts as functional.
Assay [6] deals with Trichophyton mentagrophytes. The experiment in a line: Antifungal activity against Trichophyton mentagrophytes after 48 hrs. The class given is functional.
Assay [7] relates to Talaromyces marneffei. Briefly: Antifungal activity against Penicillium marneffei by measuring inhibition zone after 48 hrs. It counts as functional.
Assay [8] relates to Talaromyces marneffei. The experiment in a line: Antifungal activity against Penicillium marneffei after 48 hrs. It counts as functional.
Assay [9] relates to Candida albicans. Briefly: Antifungal activity against Candida albicans by measuring inhibition zone after 48 hrs. The class given is functional.
For assay [10], the system named is Candida albicans. The experiment in a line: Antifungal activity against Candida albicans after 48 hrs. The class given is functional.
Assay [11] deals with Aspergillus fumigatus. The experiment in a line: Antifungal activity against Aspergillus fumigatus by measuring inhibition zone after 48 hrs. It counts as functional.
Assay [12] has as its system Aspergillus fumigatus. Briefly: Antifungal activity against Aspergillus fumigatus after 48 hrs. The class given is functional.
The subject of assay [13] is Pseudomonas aeruginosa. The experiment in a line: Antibacterial activity against Pseudomonas aeruginosa after 24 hrs by broth dilution method. The class given is functional.
The test system of assay [14] is Klebsiella pneumoniae. The experiment in a line: Antibacterial activity against Klebsiella pneumoniae after 24 hrs by broth dilution method. It counts as functional.
Assay [15] deals with Streptococcus pyogenes. Briefly: Antibacterial activity against Streptococcus pyogenes after 24 hrs by broth dilution method. The class given is functional.
For assay [16], the system named is Staphylococcus aureus. Briefly: Antibacterial activity against Staphylococcus aureus after 24 hrs. The class given is functional.
The subject of assay [17] is Escherichia coli. The experiment in a line: Antibacterial activity against Escherichia coli after 24 hrs. The class given is functional.
Assay [18] deals with Pseudomonas aeruginosa. The experiment in a line: Antibacterial activity against Pseudomonas aeruginosa after 24 hrs. The class given is functional.
Assay [19] has as its system Klebsiella pneumoniae. Briefly: Antibacterial activity against Klebsiella pneumoniae after 24 hrs. It counts as functional.
For assay [20], the system named is Streptococcus pyogenes. The experiment in a line: Antibacterial activity against Streptococcus pyogenes after 24 hrs. The class given is functional.
Assay [21] deals with Talaromyces marneffei. The experiment in a line: Antifungal activity against Penicillium marneffei at >100 ug/mL after 48 hrs. It counts as functional, organism-based.
Assay [22] has as its system Aspergillus flavus. The experiment in a line: Antifungal activity against Aspergillus flavus at >100 ug/mL after 48 hrs. The class given is functional, organism-based.
Assay [23] relates to Klebsiella pneumoniae. Briefly: Antibacterial activity against Klebsiella pneumoniae at >100 ug/mL after 24 hrs by broth dilution method. It counts as functional, organism-based.

Regarding `O=c1c(Cc2ccc(Cl)cc2)nnc2scc(-c3cc(F)c(Cl)cc3Cl)n12`, the “inhibition zone (IZ)” value is 18 mm in [1]; 21 mm in assay [5]; 25 mm in [7]; 17 mm in [9]; 25 mm in assay [11]; 21 mm in [16]. The “inhibition zone (IZ)” value was found to be 27 mm in assay [17], 29 mm in assay [18], 18 mm in assay [19] and 24 mm in [20]. In addition, the MIC in [2], in assay [3], in assay [4], in assay [6], in [8] and in assay [10] was 6.25 µg/mL (≈ 14.2 µM) throughout. Besides, the MIC in [12], in assay [13], in assay [14] and in [15] was 6.25 µg/mL (≈ 14.2 µM) each time.

As for `O=c1c(Cc2ccc(Cl)cc2)nnc2scc(-c3ccc(Cl)cc3)n12`, the “inhibition zone (IZ)” value came out at 22 mm in assay [1]; 25 mm in assay [5]; 22 mm in assay [7]; 20 mm in assay [9]; 22 mm in assay [11]; 23 mm in assay [16]. In addition, the “inhibition zone (IZ)” value is 26 mm in assay [17], 33 mm in [18], 20 mm in assay [19] and 23 mm in [20]. Further, the MIC in assay [2], in assay [3], in assay [4], in assay [6], in assay [8] and in [10] was 6.25 µg/mL (≈ 16.1 µM) throughout. The MIC in assay [12], in [13], in [14] and in assay [15] was 6.25 µg/mL (≈ 16.1 µM) throughout.

For the molecule `O=C(O)c1cn(C2CC2)c2cc(N3CCNCC3)c(F)cc2c1=O` [CIPROFLOXACIN], the MIC in assay [14] and in assay [15] was 6.25 µg/mL (≈ 18.9 µM) throughout. Also, the “inhibition zone (IZ)” value turned out to be 23 mm in assay [16]; 30 mm in assay [17]; 33 mm in [18]; 22 mm in assay [19]; 25 mm in [20].

With `O=c1c(Cc2ccc(Cl)cc2Cl)nnc2scc(-c3ccc(Br)cc3)n12`, the “inhibition zone (IZ)” value in assay [1] was determined as 16 mm; in [5], 11 mm; in assay [9] it was 7 mm; in assay [11], 12 mm; in [16], 21 mm; in assay [17], 26 mm. Further, the “inhibition zone (IZ)” value in assay [18] turned out to be 29 mm; in [19], 18 mm; in assay [20] it was 20 mm. In addition, the minimal inhibitory concentration (MIC) (usually the lowest concentration that inhibits growth of the organism) turned out to be 6.25 µg/mL (≈ 13.4 µM) in assay [2]; 6.25 µg/mL (≈ 13.4 µM) in assay [3]; 6.25 µg/mL (≈ 13.4 µM) in assay [4]; 12.5 µg/mL (≈ 26.8 µM) in assay [6]; 25 µg/mL (≈ 53.5 µM) in assay [10]; 12.5 µg/mL (≈ 26.8 µM) in assay [12]. In addition, the minimal inhibitory concentration (MIC) in assay [13], in [14] and in assay [15] was 6.25 µg/mL (≈ 13.4 µM) in each case. In addition, the inhibition result in [21] was “inactive”.

As to `O=c1c(Cc2ccc(Cl)cc2Cl)nnc2scc(-c3ccc(Cl)cc3)n12`, the “inhibition zone (IZ)” value in [1] was 21 mm; in [5], 21 mm; in [7], 23 mm; in [9], 18 mm; in [11] it was 24 mm; in [16] it was 21 mm. The “inhibition zone (IZ)” value turned out to be 29 mm in assay [17], 32 mm in [18], 19 mm in assay [19] and 23 mm in assay [20]. Besides, the MIC in assay [2], in [3], in assay [4], in assay [6], in [8] and in assay [10] was 6.25 µg/mL (≈ 14.8 µM) throughout. The minimal inhibitory concentration (MIC) in [12], in assay [13], in [14] and in assay [15] was 6.25 µg/mL (≈ 14.8 µM) throughout.

Consider `O=c1c(Cc2ccc(Cl)cc2)nnc2scc(-c3ccc([N+](=O)[O-])cc3)n12`, for which the MIC is 25 µg/mL (≈ 62.7 µM) in assay [2]; 6.25 µg/mL (≈ 15.7 µM) in assay [3]; 25 µg/mL (≈ 62.7 µM) in [6]; 6.25 µg/mL (≈ 15.7 µM) in assay [8]; 6.25 µg/mL (≈ 15.7 µM) in assay [10]; 6.25 µg/mL (≈ 15.7 µM) in [12]. Further, the minimum inhibitory concentration (MIC) in assay [13] and in assay [15] was 25 µg/mL (≈ 62.7 µM) each time. Besides, the inhibition result in assay [22] and in assay [23] was “inactive” throughout. In addition, the “inhibition zone (IZ)” value in [5] is on record as 7 mm; in assay [7], 21 mm; in assay [9], 18 mm; in assay [11] it was 15 mm; in [16], 9 mm; in assay [17], 25 mm. Further, the “inhibition zone (IZ)” value was found to be 8 mm in assay [18] and 9 mm in assay [20].

On to `C[C@@H]1[C@H](O)[C@@H](C)/C=C/C=C/C=C/C=C/C=C/C=C/C=C/[C@H](O[C@@H]2O[C@H](C)[C@@H](O)[C@H](N)[C@@H]2O)C[C@@H]2O[C@](O)(C[C@@H](O)C[C@@H](O)[C@H](O)CC[C@@H](O)C[C@@H](O)CC(=O)O[C@H]1C)C[C@H](O)[C@H]2C(=O)O` [AMPHOTERICIN B], for which the “inhibition zone (IZ)” value in assay [1] came to 21 mm; in [5] it was 23 mm; in assay [7], 25 mm; in assay [9], 19 mm; in assay [11], 25 mm. For the same molecule, the MIC in assay [4], in assay [6], in assay [8], in assay [10] and in [12] was 6.25 µg/mL (≈ 6.76 µM) throughout.

Regarding `O=c1c(Cc2ccc(Cl)cc2Cl)nnc2scc(-c3cc(F)c(Cl)cc3Cl)n12`, the “inhibition zone (IZ)” value in assay [1] is 21 mm; in [5] it was 22 mm; in assay [7], 25 mm; in assay [9], 20 mm; in assay [11], 24 mm; in assay [16] it was 21 mm. The “inhibition zone (IZ)” value is 29 mm in assay [17], 31 mm in assay [18], 19 mm in [19] and 24 mm in assay [20]. Besides, the MIC in assay [2], in [3], in assay [4], in [6], in assay [8] and in assay [10] was 6.25 µg/mL (≈ 13.2 µM) throughout. Further, the minimum inhibitory concentration (MIC) in [12], in assay [13], in assay [14] and in [15] was 6.25 µg/mL (≈ 13.2 µM) in each case.
